# Source: US20260283924A1, “TOPICAL COMPOSITIONS FOR PROMOTING HAIR GROWTH” (ESTETRA SRL, priority 2023, published 2026)
# Tests used:
# [1] = system: Female wild-type (C57BL/6J) mice; assay: In vivo LPS-induced delayed wound healing model: uterine weight and morphology (systemic effect), Example 4; conditions: topical over wounds, 60 μl total, day -1 to day 4; uteri at day 5
# [2] = system: human anagen VI scalp HFs; assay: LDH release into the medium (cytotoxicity), healthy donor hair follicle organ culture; assay type: cell-based; conditions: all tested concentrations (300 nM, 3 μM, 30 μM)
# Method: 12-44 full-length frontotemporal hair follicles (HF) were obtained from four healthy human female donors >50 years old. […] Donor 2:29; Donor 3:44; Donor 4:32). After microdissection from skin as described in the art (Edelkamp et al., Methods Mol Biol, 2020, 2154:105-119; and Langan et al., Exp Dermatol, 2015 December; 24(12):903-1), HFs were placed in adequate culture medium and allowed a 24 h rest period to allow them to recover from the trauma of microdissection. Test substance (either vehicle (0.3% EtOH) or E4 at concentrations of 30 μM, 3 μM or 300 nM) was added to the medium at the end of the 24 h. Total culturing time was 5-9 days depending on the stage of the HFs in the vehicle group. The experimental design for a 6-days HF organ culture experiment is depicted in FIG. 9.
# LDH is released from the cytoplasm of damaged cells into the culture medium. Therefore, the cytotoxicity of agents can be estimated based on the activity of LDH present in the culture medium using a colorimetric assay (Cytotoxicity Detection Kit [LDH], Roche) as described (Gherardini et al Int J Cosmet Sci, 2019 April; 41(2):164-182). The measurements were performed on supernatants collected on days respective to each culture and normalized to blank.
# For the maximum release, HFs were treated with 1% Triton X 100 in vehicle medium at 37° C. for 30 minutes in order to induce maximum LDH release into the medium.
# [3] = system: occipital hair follicles (healthy donor); assay: Healthy donor hair follicle organ culture (ex vivo model), Example 8; assay type: cell-based, human; conditions: for K15 expression in the suprabulbar outer root sheath / number of cells (K15) in the suprabulbar outer root sheath: 300 nM; for density of cells in the dermal cup of anagen HFs / density of cells in the dermal papilla / density of cells in the dermal papilla stalk / hair matrix keratinocyte proliferation / total number of cells in the dermal cup of anagen HFs / total number of cells in the dermal papilla / total number of cells in the dermal papilla stalk: 3 μM
# Method: In brief, 24 full-length occipital hair follicles (HF) were obtained from one healthy donor. […] Test substance (either vehicle (0.03% EtOH), E2 at concentration of 300 nM or E4 at concentrations of 3 μM or 300 nM) was added to the medium at the end of the 24 h. Total culturing time was 5 days depending on the stage of the HFs in the vehicle group. The experimental design is depicted in FIG. 23.
# [4] = system: terminal and intermediate hair follicles from affected and non-affected areas of FPHL donors; assay: Female pattern hair loss (FPHL) donor hair follicle organ culture (ex vivo model), Example 9; assay type: cell-based, human; conditions: 3 μM; for microscopic hair cycle staging: anagen: HFs from non-affected (terminal) and affected (terminal and intermediate) scalp, preliminary, 2 donors; for hair matrix keratinocytes proliferation: terminal HFs from non-affected and affected scalp; for versican expression: terminal and intermediate HFs from non-affected scalp
# Source text: Example 7 is repeated for female donor subjects suffering from pattern hair loss (FPHL), with a few modifications. In brief, terminal and intermediate hair follicles (HF) from affected (vertex) and non-affected (occipital) areas were obtained from female donors diagnosed to have FPHL (FIG. 34). After microdissection from skin as described in the art (Edelkamp et al., Methods Mol Biol, 2020, 2154:105-119; and Langan et al., Exp Dermatol, 2015 December; 24(12):903-1), HFs are placed in adequate culture medium and allowed a 24 h rest period to allow them to recover from the trauma of microdissection. Test substance (either vehicle (0.03% EtOH) or E4 at concentrations of 3 μM) was added to the medium at the end of the 24 h. Total culturing time was 3-5 days depending on the stage of the HFs in the vehicle group. The experimental design is depicted in FIG. 35. The same parameters as those described in Example 7 were investigated.
# […] Three additional donors still have to be collected.
# [5] = 300 nM and 3 μM, listed as Estetrol
# [6] = intermediate HFs from affected scalp
# [7] = intermediate HFs from non-affected area
# [8] = intermediate HFs from non-affected scalp
# [9] = intermediate HFs from non-affected scalp, listed as estetrol
# [10] = terminal HFs from non-affected scalp
# [11] = terminal HFs from non-affected scalp, listed as estetrol
smiles,measurement,setting,value
"C[C@]12CC[C@@H]3c4ccc(O)cc4CC[C@H]3[C@@H]1[C@@H](O)[C@@H](O)[C@@H]2O [Formulation E4, 1,3,5 (10)-estratrien-3,15alpha,16alpha,17beta-tetrol]",uterine weight and morphology,[1],affects uterine weight in a dose-dependent manner
same,HF cytotoxicity (LDH release into the medium),[2],did not induce HF cytotoxicity
same,HF cytotoxicity (LDH release into the medium),[2]; listed as Estetrol,does not induce LDH release into the medium
same,K15 expression in the suprabulbar outer root sheath,[3],tendentially increased
same,number of cells (K15) in the suprabulbar outer root sheath,[3],tendentially increased
same,area of the dermal papilla,[3]; 300 nM and 3 μM,increased
same,hair shaft production (reduction vs vehicle),[3]; 300 nM and 3 μM,tendentially
same,microscopic hair cycle: anagen,[3]; 300 nM and 3 μM,maintained HFs in anagen
same,number of CD34+ cells in the suprabulbar outer root sheath,[3]; 300 nM and 3 μM,decreased
same,area of the dermal papilla,[3]; [5],increases the area
same,microscopic hair cycle: anagen,[3]; [5],maintain hair follicles in anagen
same,number of CD34+ cells in the suprabulbar outer root sheath,[3]; [5],decreases the number of CD34+ cells
same,K15 expression in the suprabulbar outer root sheath,[3]; listed as estetrol,tendentially increase K15 expression
same,number of cells (K15) in the suprabulbar outer root sheath,[3]; listed as estetrol,tendentially increase
same,density of cells in the dermal cup of anagen HFs,[3],significantly decreased
same,density of cells in the dermal papilla,[3],tendentially decreased
same,density of cells in the dermal papilla stalk,[3],decreased
same,hair matrix keratinocyte proliferation,[3],tendentially increased
same,total number of cells in the dermal cup of anagen HFs,[3],significantly decreased
same,total number of cells in the dermal papilla,[3],tendentially decreased
same,total number of cells in the dermal papilla stalk,[3],decreased
same,microscopic hair cycle: anagen maintenance,[3]; 3 μM compared with 300 nM,even more prominently
same,density of cells in the dermal cup of anagen HFs,[3]; listed as Estetrol,significantly decreases
same,density of cells in the dermal papilla,[3]; listed as Estetrol,tendentially decreases
same,density of cells in the dermal papilla stalk,[3]; listed as Estetrol,decreases the density of cells in the dermal papilla stalk
same,hair matrix keratinocyte proliferation,[3]; listed as Estetrol,increased
same,total number of cells in the dermal cup of anagen HFs,[3]; listed as Estetrol,significantly decreases
same,total number of cells in the dermal papilla,[3]; listed as Estetrol,tendentially decreases
same,total number of cells in the dermal papilla stalk,[3]; listed as Estetrol,tendentially
same,hair matrix keratinocytes apoptosis,[4],without affecting hair matrix keratinocytes apoptosis
same,dermal papilla inductivity (versican expression and alkaline phosphatase activity),[4]; HFs from affected area,not strikingly altered
same,microscopic hair cycle staging: anagen,[4],prolonged anagen
same,microscopic hair cycle staging: anagen,[4]; listed as estetrol,prolongs anagen
same,density of dermal papilla cells,[4]; [6],tendentially increased the density
same,total number of dermal papilla cells,[4]; [6],tendentially increased
same,density of dermal papilla cells,[4]; [7],tendentially decreases the density
same,total number of cells in the dermal cup,[4]; [7],increases
same,"K15 expression, bulge basal layer",[4]; [8],tendentially increased K15 expression
same,area size of the dermal papilla,[4]; [8],tendentially increased
same,density of dermal papilla stalk cells,[4]; [8],tendentially decreased the density of dermal papilla stalk cells
same,total number of cells of the dermal papilla,[4]; [8],tendentially increased the total number of cells
same,area size of the dermal papilla,[4]; [9],increases
same,density of dermal papilla stalk cells,[4]; [9],tendentially decreased
same,total number of cells of the dermal papilla,[4]; [9],increases the total DP cell number
same,"proliferation of K15+ cells, bulge basal layer",[4]; terminal HFs from affected scalp,increased proliferation of K15+ cells
same,hair matrix keratinocytes proliferation,[4],tendentially increased hair matrix keratinocytes proliferation
same,hair matrix keratinocytes proliferation,[4]; listed as estetrol,tendentially increases hair matrix keratinocytes proliferation
same,"proliferation of K15+ cells, suprabulbar outer root sheath",[4]; terminal HFs from non-affected and intermediate HFs from affected scalp,increased proliferation of K15+ cells
same,density of dermal papilla stalk cells,[4]; terminal HFs from non-affected area,without influencing their density
same,"K15 expression, suprabulbar outer root sheath",[4]; [10],tendentially increased K15 expression
same,area size of the dermal papilla stalk,[4]; [10],significantly decreased
same,"number of K15 positive cells, suprabulbar outer root sheath",[4]; [10],tendentially increased
same,total number of cells in the dermal cup,[4]; [10],significantly reduced the total number of cells in the dermal cup
same,total number of cells of the dermal papilla stalk,[4]; [10],significantly decreased the total number of cells
same,area size of the dermal papilla stalk,[4]; [11],significantly decreases
same,total number of cells in the dermal cup,[4]; [11],significantly reduces
same,total number of cells of the dermal papilla stalk,[4]; [11],significantly decreases the total number
same,alkaline phosphatase activity (dermal papilla inductivity),[4]; terminal and intermediate HFs from non-affected area,tendential increase
same,versican expression,[4],tendentially increased versican expression
same,versican expression,[4]; listed as estetrol,tendentially increases versican expression
